# Patent US20240083872A1, “CYCLIC AMINE DERIVATIVES HAVING SEROTONIN RECEPTOR BINDING ACTIVITY” (Shionogi & Co., Ltd., priority 2020, published 2024)
# pIC50, pKi: −log10 of the molar value. Read-outs that look alike come from different tables or passages of the source.
# Assays:
# Metabolic stability test = type: in vitro ADME; details: human hepatic microsomes, 0.5 μmol/L, 30 minutes, 37° C., NADPH (oxidative reaction)
# Protocol: Test Example 6-2: Metabolic Stability Test
# Using commercially available pooled human hepatic microsomes, a compound according to the present invention was reacted for a constant time, and a remaining rate was calculated by comparing a reacted sample and an unreacted sample, thereby, a degree of metabolism of the compound according to the present invention in liver was evaluated.
# A reaction was performed (oxidative reaction) at 37° C. for 0 minutes or 30 minutes in the presence of 1 mmol/L NADPH in 0.2 mL of a buffer (50 mmol/L Tris-HCl pH 7.4, 150 mmol/L potassium chloride, 10 mmol/L magnesium chloride) containing 0.5 mg protein/mL of human hepatic microsomes. After the reaction, 70 μL of the reaction solution was added to 140 μL of a solution of methanol/acetonitrile=1/1 (v/v), mixed and centrifuged at 3000 rpm for 15 minutes. The compound according to the present invention in the supernatant was quantified by LC/MS/MS or Solid Phase Extraction (SPE)/MS, and a remaining rate of the compound according to the present invention after the reaction was calculated, letting a compound amount at 0 minute reaction time be 100%.
# [1] = molecular target: human recombinant 5-HT2C receptor (Homo sapiens (Human), UniProt P28335); experiment: 5-HT2C receptor binding inhibition test ([3H]-Mesulergine); details: Jump-In HEK cell membrane, [3H]-Mesulergine
# human recombinant 5-HT2C receptor, sequence (P28335 33-458): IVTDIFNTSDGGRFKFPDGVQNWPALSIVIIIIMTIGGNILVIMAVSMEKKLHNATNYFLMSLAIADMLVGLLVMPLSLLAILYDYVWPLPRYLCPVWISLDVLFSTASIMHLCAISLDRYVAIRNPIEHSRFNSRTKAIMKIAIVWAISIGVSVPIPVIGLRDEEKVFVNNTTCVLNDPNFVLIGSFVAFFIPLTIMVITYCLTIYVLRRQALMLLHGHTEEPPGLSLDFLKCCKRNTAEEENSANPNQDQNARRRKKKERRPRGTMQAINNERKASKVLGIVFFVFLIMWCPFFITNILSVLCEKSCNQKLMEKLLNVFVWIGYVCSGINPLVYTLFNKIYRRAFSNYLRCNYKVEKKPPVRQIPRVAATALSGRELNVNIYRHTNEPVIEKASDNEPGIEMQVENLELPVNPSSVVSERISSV
# [2] = molecular target: human recombinant 5-HT2A receptor (Homo sapiens (Human), UniProt P28223); experiment: 5-HT2A receptor binding inhibition test ([3H]-Ketanserin); details: Jump-In HEK cell membrane
# human recombinant 5-HT2A receptor, sequence (P28223 whole entry): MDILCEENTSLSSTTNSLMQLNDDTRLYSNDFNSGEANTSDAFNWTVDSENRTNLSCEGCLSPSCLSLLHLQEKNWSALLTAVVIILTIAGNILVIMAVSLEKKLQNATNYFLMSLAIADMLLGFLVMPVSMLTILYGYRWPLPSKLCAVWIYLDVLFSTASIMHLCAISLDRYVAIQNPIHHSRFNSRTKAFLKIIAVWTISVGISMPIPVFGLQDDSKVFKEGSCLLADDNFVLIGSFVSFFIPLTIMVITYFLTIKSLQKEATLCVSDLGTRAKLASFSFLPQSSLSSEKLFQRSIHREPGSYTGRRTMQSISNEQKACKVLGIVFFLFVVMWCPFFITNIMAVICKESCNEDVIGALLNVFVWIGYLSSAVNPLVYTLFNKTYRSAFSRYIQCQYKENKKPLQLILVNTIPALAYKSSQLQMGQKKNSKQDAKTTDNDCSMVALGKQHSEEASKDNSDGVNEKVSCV
# Summary of the method: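 HEK cell membranes expressing human recombinant receptor were incubated with [3H]-ketanserin near its Kd in Tris-HCl 50 mmol/L pH 7.4 buffer (0.1% BSA) for 1.5 h at 25° C, then filtered on GF/B. Non-specific binding was defined with […] serotonin; Ki came from dose-response curves.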
# [3] = molecular target: human ether-a-go-go related gene (hERG) channel (Homo sapiens (Human), UniProt Q12809); experiment: hERG test (FluxOR potassium channel assay, FLIPR); type: cell-based; details: CHO cells expressing hERG channel, thallium flux fluorescence
# human ether-a-go-go related gene (hERG) channel, sequence (Q12809 whole entry): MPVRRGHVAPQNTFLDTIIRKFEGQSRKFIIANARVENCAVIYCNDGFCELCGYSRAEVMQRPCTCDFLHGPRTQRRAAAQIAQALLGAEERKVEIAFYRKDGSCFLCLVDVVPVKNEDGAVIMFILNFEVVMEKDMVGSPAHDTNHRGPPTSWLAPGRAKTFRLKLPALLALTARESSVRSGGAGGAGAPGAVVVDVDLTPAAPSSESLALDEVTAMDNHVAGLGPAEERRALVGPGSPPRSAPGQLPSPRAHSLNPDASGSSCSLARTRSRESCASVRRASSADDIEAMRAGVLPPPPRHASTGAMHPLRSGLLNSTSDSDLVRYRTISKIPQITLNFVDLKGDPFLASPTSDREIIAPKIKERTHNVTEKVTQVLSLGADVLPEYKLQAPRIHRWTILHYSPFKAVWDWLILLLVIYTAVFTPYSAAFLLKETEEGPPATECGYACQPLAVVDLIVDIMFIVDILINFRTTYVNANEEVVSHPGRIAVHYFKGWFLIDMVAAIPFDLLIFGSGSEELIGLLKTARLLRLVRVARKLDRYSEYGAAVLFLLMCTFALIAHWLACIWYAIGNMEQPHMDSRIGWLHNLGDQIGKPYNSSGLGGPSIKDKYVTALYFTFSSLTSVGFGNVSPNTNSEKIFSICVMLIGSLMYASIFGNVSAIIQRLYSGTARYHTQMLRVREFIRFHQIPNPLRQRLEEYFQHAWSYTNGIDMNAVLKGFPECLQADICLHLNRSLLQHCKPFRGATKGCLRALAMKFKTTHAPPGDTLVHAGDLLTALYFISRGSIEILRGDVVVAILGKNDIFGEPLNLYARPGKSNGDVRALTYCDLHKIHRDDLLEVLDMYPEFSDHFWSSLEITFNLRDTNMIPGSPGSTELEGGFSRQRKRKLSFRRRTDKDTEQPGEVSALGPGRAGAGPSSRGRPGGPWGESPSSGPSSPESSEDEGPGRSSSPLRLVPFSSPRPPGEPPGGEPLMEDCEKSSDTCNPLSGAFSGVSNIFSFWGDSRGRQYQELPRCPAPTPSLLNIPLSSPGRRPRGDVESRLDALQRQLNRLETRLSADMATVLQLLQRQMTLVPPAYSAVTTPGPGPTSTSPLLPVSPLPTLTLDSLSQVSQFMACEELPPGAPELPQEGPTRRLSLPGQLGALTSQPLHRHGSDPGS
# Protocol: Test Example 3-2: hERG Test
# For the purpose of evaluating risk of an electrocardiogram QT interval prolongation of the compound of the present invention, effects of the compound were studied by evaluating the activity of potassium channel using CHO cells expressing human ether-a-go-go related gene (hERG) channel.
# Evaluation was performed using a FluxORII Green Potassium IonCgannel Assay kit (Invitrogen: Molecular Probes).
# Cells were seeded in a 384-assay plate (8000 cells/well/40 μL) and incubated (37° C., 5% CO2) overnight. After replacing the medium with a Wash buffer (1×HBSS, 20 mM HEPES) with a microplate washer, a fluorescent indicator was added to the medium and allowed to incubate (37° C., 5% CO2) for 1 hour for incorporation of the fluorescent indicator into cells.
# A cell plate was placed on a cell-based kinetic assay system FLIPR (Molecular Devices, LLC.), and the compound was added to the cells so as to have a desired concentration and reacted for 10 minutes. When a mixed solution of potassium and thallium as a stimulator was added thereto, the potassium channel was opened, and thallium that flowed into the cells bound to the fluorescent indicator, so that the intracellular fluorescence signal increased, and the potassium channel current was detected as a fluorescence signal. […] Then, the inhibition rate was calculated from the signal intensity at each concentration. IC50 was calculated from the inhibition rate at each concentration.
# [4] = read-out: human serotonin 5-HT2C receptor binding inhibitory activity, Ki value
# [5] = read-out: human serotonin 5-HT2A receptor binding activity, Ki value
Compound,remaining rate of the compound (Metabolic stability test),pKi ([1]; read-out: h-5-HT2C Ki),pKi ([2]; read-out: h-5-HT2A Ki),"pKi [1, 4]","pKi [2, 5]",pIC50 [3]
Cc1nc(CN(Cc2ccc(OCC(F)(F)C(F)(F)F)cc2)C(=O)NC2CCN(C)CC2)co1 [Compound I-088],80.0%,> 8.00,> 8.00,–,–,–
CC(C)COc1ccc(CN(Cc2ccn(C)n2)C(=O)N[C@H]2CCNCC23CC3)cc1 [Compound I-028],90.2%,> 8.00,> 8.00,–,–,–
CCCCOc1ccc(CN(Cc2cnn(C)n2)C(=O)NC2CCN(C)CC2)c(F)c1 [Compound I-102],97.3%,–,–,9.39,9.19,–
CCCCOc1ccc(CN(Cc2coc(C)n2)C(=O)CC2CCN(C)CC2)cc1 [Compound I-099],–,> 8.00,> 8.00,–,–,4.33
COc1ccc(CN(Cc2ccn(C)n2)C(=O)NC2CCN(C)CC2)cc1C [Compound I-010],–,5.30 to 7.00,7.00 to 8.00,–,–,–
Cc1nc(CN(Cc2ccc(OCC(C)C)cc2)C(=O)N[C@H]2CCN(C)C[C@H]2F)co1 [Compound I-078],–,> 8.00,> 8.00,–,–,–
CCCCOc1ccc(CN(Cc2cnn(C)n2)C(=O)N[C@H]2CCN(C)CC23CC3)cc1 [Compound I-098],–,> 8.00,> 8.00,–,–,–
CC(C)COc1ccc(CN(Cc2coc(CF)n2)C(=O)NC2CCN(C)CC2)cc1 [Compound I-120],–,> 8.00,> 8.00,–,–,–
CCCCOc1ccc(CN(Cc2coc(C)n2)C(=O)N[C@H]2CCN(C)CC23CC3)c(F)c1 [Compound I-091],–,> 8.00,> 8.00,–,–,–
CC(C)COc1ccc(CN(Cc2cnn(C)n2)C(=O)NC2CCN(C)CC2)c(F)c1 [Compound I-118],–,–,–,9.43,8.99,–

# Now from value to molecule, other results behind:
remaining rate of the compound (Metabolic stability test),pKi ([1]; read-out: h-5-HT2C Ki),pKi ([2]; read-out: h-5-HT2A Ki),"pKi [1, 4]","pKi [2, 5]",Compound,pIC50 [3]
–,> 8.00,> 8.00,–,–,Cc1nc(CN(Cc2ccc(OCC(C)C)cc2)C(=O)OC2CCN(C)CC2)co1 [Compound I-081],< 4.28
–,7.00 to 8.00,7.00 to 8.00,–,–,CC(C)COc1ccc(CN(Cc2ccn(C)n2)C(=O)OC2CCN(C)CC2)cc1 [Compound I-082],< 4.28
–,–,7.00 to 8.00,–,–,Cc1cc(CN(Cc2ccc(OCC(C)C)cc2)C(=O)OC2CCN(C)CC2)nn1C [Compound I-083],< 4.28
85.0%,–,–,8.51,8.67,CC(C)COc1ccc(CN(Cc2ccn(C)n2)C(=O)NC2CCN(C)CC2)cc1 [Compound I-043],–
99.6%,> 8.00,> 8.00,–,–,CC(C)COc1ccc(CN(Cc2ccc(F)cn2)C(=O)NC2CCN(C)CC2)cc1 [Compound I-016],–
85.3%,> 8.00,> 8.00,–,–,Cc1nc(CN(Cc2ccc(OCC(C)C)cc2)C(=O)NC2CCN(C)CC2)co1 [Compound I-077],–
–,–,–,8.24,8.58,CC(C)COc1ccc(CN(Cc2cnn(C)n2)C(=O)OC2CCN(C)CC2)cc1 [Compound I-084],< 4.28
75.5%,–,–,9.62,9.30,CCCCOc1ccc(CN(Cc2coc(C)n2)C(=O)NC2CCN(C)CC2)cc1 [Compound I-086],–
–,7.00 to 8.00,> 8.00,–,–,Cc1ccc(CN(Cc2ccc(OCC(C)C)cc2)C(=O)OC2CCN(C)CC2)[nH]1 [Compound I-085],–
–,> 8.00,> 8.00,–,–,CC(C)COc1ccc(CN(Cc2ccc(F)cn2)C(=O)N[C@H]2CCN(C)C[C@H]2F)cc1 [Compound I-050],–
–,7.00 to 8.00,7.00 to 8.00,–,–,Cc1ccc(CN(Cc2ccn(C)n2)C(=O)NC2CCN(C)CC2)cc1 [Compound I-038],–
